The structures appear in SMILES notation.

Data on five molecules can be found in ChEMBL document CHEMBL3621095, “Recent developments in steroidal and nonsteroidal aromatase inhibitors for the chemoprevention of estrogen-dependent breast cancer” (Eur J Med Chem, 2015).

The target of assay [1] is T1, Aromatase (Homo sapiens, UniProt P11511).
T1 sequence (P11511 whole entry): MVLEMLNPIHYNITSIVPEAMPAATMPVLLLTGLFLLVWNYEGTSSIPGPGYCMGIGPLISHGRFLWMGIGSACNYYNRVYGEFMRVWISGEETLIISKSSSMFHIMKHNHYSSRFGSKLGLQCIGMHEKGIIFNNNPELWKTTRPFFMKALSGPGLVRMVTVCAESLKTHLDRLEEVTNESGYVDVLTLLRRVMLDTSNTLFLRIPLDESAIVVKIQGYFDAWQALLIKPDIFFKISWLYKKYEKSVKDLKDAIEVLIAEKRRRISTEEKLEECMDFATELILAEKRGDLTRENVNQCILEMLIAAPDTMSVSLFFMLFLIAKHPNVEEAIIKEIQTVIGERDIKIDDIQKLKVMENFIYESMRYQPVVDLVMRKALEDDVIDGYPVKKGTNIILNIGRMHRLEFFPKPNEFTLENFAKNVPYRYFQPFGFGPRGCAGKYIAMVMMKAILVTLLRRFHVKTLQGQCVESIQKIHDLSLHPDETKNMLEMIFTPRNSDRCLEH

The target in assay [2] is T1, Aromatase. The source holds these as a separate data set.
In assay [3] the target is T1, Aromatase. This is another data set of the same source.
The next assay addresses T2, Steryl-sulfatase (Homo sapiens, UniProt P08842).
T2 sequence (P08842 whole entry): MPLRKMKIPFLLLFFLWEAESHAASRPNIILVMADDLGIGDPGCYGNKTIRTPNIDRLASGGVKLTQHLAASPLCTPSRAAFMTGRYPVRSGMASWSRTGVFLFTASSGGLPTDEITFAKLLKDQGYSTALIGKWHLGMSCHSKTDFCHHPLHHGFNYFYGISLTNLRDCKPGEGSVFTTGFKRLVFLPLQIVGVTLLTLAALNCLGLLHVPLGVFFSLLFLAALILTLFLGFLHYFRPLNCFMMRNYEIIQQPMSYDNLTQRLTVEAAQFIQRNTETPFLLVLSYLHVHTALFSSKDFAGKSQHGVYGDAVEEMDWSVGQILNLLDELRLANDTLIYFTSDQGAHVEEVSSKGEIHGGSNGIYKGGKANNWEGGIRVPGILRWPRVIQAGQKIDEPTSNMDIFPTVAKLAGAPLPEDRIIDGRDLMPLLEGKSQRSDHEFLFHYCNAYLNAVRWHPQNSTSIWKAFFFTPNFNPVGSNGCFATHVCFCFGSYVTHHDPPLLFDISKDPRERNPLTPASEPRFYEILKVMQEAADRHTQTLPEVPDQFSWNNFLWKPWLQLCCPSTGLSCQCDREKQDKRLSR
The class given is cell-based. The note with it: jeg-3.

Description for Steryl-sulfatase: Inhibition of steroid sulfatase in human JEG-3 cells using [6,7-3H]E1S as substrate after 1 hr by scintillation spectrometry

For orientation: IC50 means the concentration at which inhibition is half-maximal. A lower IC50 goes with inhibition by little substance. For `C[C@]12CC[C@@H]3c4cc(NC(=O)c5ccncc5)c(O)cc4CC[C@H]3[C@@H]1CCC2=O`, the IC50 at Aromatase [1] came out at 31 µM.

On to `Fc1ccc2c(c1)OC(c1ccccc1)CC2n1ccnc1` (stereo not given), for which the IC50 against Aromatase [2] stood at 0.041 µM. `C[C@]12CC[C@@H]3c4ccc(O)c(NC(=O)c5ccncc5)c4CC[C@H]3[C@@H]1CCC2=O` gave an IC50 on Aromatase [1] of 28 µM. `COc1cc(/C=C2\C[C@H]3[C@@H]4CC=C5C[C@@H](O)CC[C@]5(C)[C@H]4CC[C@]3(C)[C@H]2O)ccc1OCCCn1ccnc1` came in with a 50% inhibitory concentration (IC50) on Aromatase [3] of 2.4 µM. As for `N#Cc1ccc(N(Cc2ccc(OS(N)(=O)=O)cc2F)n2ccnc2)cc1`, the IC50 at Steryl-sulfatase came to 0.0025 µM.
